Patent US6197963A, “Non-peptide peptidomimetics” (The Trustees of the University of Pennsylvania, priority 1998, dated 2001)
“Also recorded” adds a separate entry of the source. Where two headings read alike, the source gives them in different places. Values belong to the compound of their own block, whether it stands above or below them.

How the values were obtained:
[1] = target: T1, human neurokinin-1 receptor (NK1R) (Homo sapiens, UniProt P25103); test: Displacement of 125I-substance P from human NK1R expressed in COS cells (Example 12); format: binding; settings: 125I-substance P, COS cells (Example 12)
T1 construct: expressed in transfected cells; host or cells: COS cells
T1 sequence (P25103 whole entry): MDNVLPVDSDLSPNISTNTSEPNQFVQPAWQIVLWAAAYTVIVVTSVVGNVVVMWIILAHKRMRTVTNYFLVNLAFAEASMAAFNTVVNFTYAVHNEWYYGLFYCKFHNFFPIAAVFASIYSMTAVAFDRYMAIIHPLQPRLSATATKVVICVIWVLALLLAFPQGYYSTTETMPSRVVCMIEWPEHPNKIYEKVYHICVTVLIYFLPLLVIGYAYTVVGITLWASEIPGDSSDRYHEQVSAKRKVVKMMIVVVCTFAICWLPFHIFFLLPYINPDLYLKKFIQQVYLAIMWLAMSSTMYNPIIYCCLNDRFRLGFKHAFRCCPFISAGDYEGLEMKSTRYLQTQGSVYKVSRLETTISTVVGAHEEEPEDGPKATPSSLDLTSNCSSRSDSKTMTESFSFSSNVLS
Protocol: The affinity of a variety of compounds for the substance P receptor was determined employing the following procedure.
To express the cloned human neurokinin-1 receptor (NK1R) transiently in COS, the cDNA for the human NK1R was cloned into the expression vector pCDM9 which was derived from pCDM8 (Invitrogen) by inserting the ampicillin resistance gene (nucleotide 1973 to 2964 from Bluescript SK+) into the Sac II site. Transfection of 20 μg of the plasmid DNA into 10 million COS cells was achieved by electroporation in 800 μl of the transfection buffer ([…], 1.2 mM MgCl2, 2.4 mM K2 HPO4, 0.6 mM KH2PO4, […], 10 mM HEPES pH 7.4) at 260 V and 950 μF using the IBI Genezapper (IBI, New Haven, Conn.). The cells were incubated in 10% fetal calf serum, 2 mM glutamine, 100 U/ml penicillin-streptomycin, and 90% DMEM media (Gibco, Grand Island, N.Y.) in 5% CO2 at 37° C. for three days before the binding assay.
The binding assay of human NK1R expressed in COS cells is based on the use of ^125 I-substance P (^125 I-SP, from DuPont, Boston, Mass.) as a radioactively labeled ligand which competes with unlabeled substance P or any other ligand for binding to the human NK1R. Monolayer cell cultures of COS were dissociated by the non-enzymatic solution (Specialty Media, Lavallette, N.J.) and resuspended in appropriate volume of the bind buffer (50 mM Tris pH 7.5, 5 mM MnCl2, 150 mM NaCl, 0.04 mg/ml bacitracin, 0.004 mg/ml leupeptin, 0.2 mg/ml BSA, 0.01 mM phosphoramidon) such that 200 μl of the cell suspension would give rise to about 10,000 cpm of specific ^125 I-SP binding (approximately 50,000 to 200,000 cells). In the binding assay, 200 μl of cells were added to a tube containing 20 μl of 1.5 to 2.5 nM of ^125 I-SP and 20 μl of unlabeled substance P or any other test compound. The tubes were incubated at 4° C. or at room temperature for 1 hour with gentle shaking. The bound radioactivity was separated from unbound radioactivity by GF/C filter (Brandel, Gaithersburg, Md.) which was pre-wetted with 0.1 polyethylenimine. The filter was washed with 3 ml of wash buffer (50 Tris pH 7.5, 5 mM MnCl2, 150 mM NaCl) three times and its radioactivity was determined by gamma counter.
A variety of compounds were tested according to the COS cell procedure. The concentration of compound required to inhibit the binding of substance P to the human neurokinin-1 receptor by 50% was measured.

[2] = system: SRIF receptors on AtT-20 cells; test: Binding at SRIF receptors of AtT-20 cells (Examples 104-110, Tables 1-3); set-up: species or system mouse; key to AtT-20 cells IC50: DNB: Did Not Bind
hSSTR1 = hSSTR1 (Homo sapiens, UniProt P30872); test: Binding at human SRIF receptor subtype hSSTR1
Sequence of hSSTR1 (P30872 whole entry): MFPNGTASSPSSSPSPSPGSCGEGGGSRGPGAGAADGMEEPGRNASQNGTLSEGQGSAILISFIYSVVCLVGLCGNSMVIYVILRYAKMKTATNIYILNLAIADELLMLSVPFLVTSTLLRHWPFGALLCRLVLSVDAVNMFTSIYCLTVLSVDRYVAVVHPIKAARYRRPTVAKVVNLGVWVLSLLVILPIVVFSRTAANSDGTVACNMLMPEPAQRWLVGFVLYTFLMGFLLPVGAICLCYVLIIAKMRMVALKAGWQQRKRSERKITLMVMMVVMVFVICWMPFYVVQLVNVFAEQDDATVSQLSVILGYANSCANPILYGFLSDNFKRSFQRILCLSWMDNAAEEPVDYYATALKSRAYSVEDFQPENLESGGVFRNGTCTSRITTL

hSSTR2 = hSSTR2 (Homo sapiens, UniProt P30874); test: Binding at human SRIF receptor subtype hSSTR2
Sequence of hSSTR2 (P30874 whole entry): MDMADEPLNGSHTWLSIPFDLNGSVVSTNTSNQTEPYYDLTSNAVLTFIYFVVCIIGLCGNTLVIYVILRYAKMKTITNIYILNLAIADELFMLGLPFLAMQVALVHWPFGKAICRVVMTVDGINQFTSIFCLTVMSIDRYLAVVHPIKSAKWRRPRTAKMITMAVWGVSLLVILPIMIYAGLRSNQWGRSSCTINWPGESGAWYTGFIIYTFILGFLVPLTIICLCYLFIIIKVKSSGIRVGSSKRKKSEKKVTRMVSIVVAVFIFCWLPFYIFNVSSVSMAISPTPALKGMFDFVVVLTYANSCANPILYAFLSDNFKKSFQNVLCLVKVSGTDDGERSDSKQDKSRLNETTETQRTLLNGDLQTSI

hSSTR3 = hSSTR3 (Homo sapiens, UniProt P32745); test: Binding at human SRIF receptor subtype hSSTR3
Sequence of hSSTR3 (P32745 whole entry): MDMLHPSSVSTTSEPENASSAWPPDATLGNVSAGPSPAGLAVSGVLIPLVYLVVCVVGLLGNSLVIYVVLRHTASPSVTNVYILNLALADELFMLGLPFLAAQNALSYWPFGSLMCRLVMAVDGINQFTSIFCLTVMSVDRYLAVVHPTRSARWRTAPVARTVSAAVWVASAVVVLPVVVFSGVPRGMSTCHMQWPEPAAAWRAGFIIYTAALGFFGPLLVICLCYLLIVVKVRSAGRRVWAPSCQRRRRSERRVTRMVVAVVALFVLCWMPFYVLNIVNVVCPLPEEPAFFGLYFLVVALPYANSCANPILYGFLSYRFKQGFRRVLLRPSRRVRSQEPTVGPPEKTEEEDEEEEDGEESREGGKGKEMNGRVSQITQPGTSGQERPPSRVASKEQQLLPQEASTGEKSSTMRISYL

hSSTR4 = hSSTR4 (Homo sapiens, UniProt P31391); test: Binding at human SRIF receptor subtype hSSTR4
Sequence of hSSTR4 (P31391 whole entry): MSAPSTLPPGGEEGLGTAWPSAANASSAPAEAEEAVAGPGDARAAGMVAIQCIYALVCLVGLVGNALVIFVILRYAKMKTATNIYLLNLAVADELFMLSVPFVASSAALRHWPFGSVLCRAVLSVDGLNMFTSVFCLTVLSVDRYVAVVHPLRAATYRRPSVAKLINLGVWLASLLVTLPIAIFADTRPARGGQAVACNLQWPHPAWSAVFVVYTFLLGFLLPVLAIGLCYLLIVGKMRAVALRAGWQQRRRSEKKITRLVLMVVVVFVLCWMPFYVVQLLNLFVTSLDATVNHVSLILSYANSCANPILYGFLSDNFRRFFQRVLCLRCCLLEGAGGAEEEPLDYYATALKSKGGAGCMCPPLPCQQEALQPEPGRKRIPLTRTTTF

hSSTR5 = hSSTR5 (Homo sapiens, UniProt P35346); test: Binding at human SRIF receptor subtype hSSTR5; settings: for Ki: TABLE 3, read-out: hSSTR 5 Ki
Sequence of hSSTR5 (P35346 whole entry): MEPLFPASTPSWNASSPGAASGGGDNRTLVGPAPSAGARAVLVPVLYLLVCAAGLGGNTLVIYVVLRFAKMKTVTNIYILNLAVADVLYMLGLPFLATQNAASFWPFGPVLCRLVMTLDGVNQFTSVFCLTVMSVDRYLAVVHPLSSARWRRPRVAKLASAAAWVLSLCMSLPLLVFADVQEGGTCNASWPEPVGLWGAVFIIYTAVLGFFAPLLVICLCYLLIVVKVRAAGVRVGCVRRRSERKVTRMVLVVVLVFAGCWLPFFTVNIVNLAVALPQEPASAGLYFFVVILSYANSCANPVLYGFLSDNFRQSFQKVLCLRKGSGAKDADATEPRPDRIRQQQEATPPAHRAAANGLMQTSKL

five hSSTRs = test: Profile / average over the five human SRIF receptor subtypes; format: binding
SRIF receptor = test: Displacement of 125I-CGP-23996 from SRIF receptor on AtT-20 cells (Example 13); format: binding, mouse; settings: displacement of 125I-CGP-23996, AtT-20 cells (Example 13)
NK-1 receptor = NK-1 receptor (Homo sapiens, UniProt P25103); test: Binding at the NK-1 receptor (Examples 109-110)
Sequence of NK-1 receptor (P25103 whole entry): as the sequence (P25103 whole entry) above

[3] = TABLE 1 (Example 105), read-out: AtT-20 cells 50 IC
[4] = TABLE 3 (Example 108), read-out: AtT-20 IC50
[5] = read-out: IC50 at AtT-20 cell membranes
[6] = read-out: IC50 at the NK-1 receptor

Compound: OC[C@@H]1C[C@H](OCc2ccccc2)[C@@H](OCc2ccccc2)[C@H](OCCc2c[nH]c3ccccc23)O1 [2-Indol-3-yl-ethyl-2,3,-di-O-benzyl-4-deoxy-β-D-glucopyranoside]
IC50 [1]: 400 nM

Compound: CO[C@@H]1O[C@H](COCCCCCN)C[C@H](OCc2ccccc2)[C@H]1OCc1ccccc1 [III-10, Methyl 2,3-Di-O-benzyl-4-deoxy-6-O-(5-aminopentyl)-β-D-glucopyranoside]
activity / affinity at SRIF receptors of AtT-20 cells [2]: inactive
IC50 [2, 3]: > 10000 nM

Compound: CO[C@@H]1O[C@H](CO)[C@@H](OCc2ccccc2)[C@H](OCc2ccccc2)[C@H]1OCc1ccccc1 [III-46]
IC50 (SRIF receptor): does not bind
IC50 [1]: 1000 nM

Compound: CO[C@@H]1O[C@H](COCCCCCN)[C@@H](OCc2ccccc2)[C@H](OCc2ccccc2)[C@H]1OCc1c[nH]cn1 [IV-30, Methyl 2-O-(4'-methylene-1H-imidazole)-3,4-di-O-benzyl-6-O-(5'-aminopentyl)-β-D-glucopyranoside]
IC50 [2, 3]: > 10000 nM

Compound: CO[C@@H]1O[C@H](COCCCCCN)[C@@H](OCc2ccccc2)[C@H](OCc2c[nH]cn2)[C@H]1OCc1ccccc1 [IV-39, Methyl 2,4-di-O-benzyl-3-O-(4'-methylene-1H-imidazole)-6-O-(5'-aminopentyl)-β-D-glucopyranoside]
IC50 [2, 3]: 5600 nM
IC50 [2, 5]: 5600 nM

Compound: NCCCCCOC[C@H]1O[C@@H](OCCc2c[nH]c3ccccc23)[C@H](OCc2c[nH]cn2)C[C@@H]1OCc1ccccc1 [IV-60, 2-(1H-Indol-3-yl)ethyl 2-O-(4'-methylene-1H-imidazole)-3-deoxy-4-O-benzyl-6-O-(5'-aminopentyl)-β-D-glucopyranoside]
IC50 [2, 4]: 4100 nM
Ki (hSSTR1; TABLE 3, read-out: hSSTR 1 Ki): 6800 nM
Ki (hSSTR2; TABLE 3, read-out: hSSTR 2 Ki): 4600 nM
Ki (hSSTR3; TABLE 3, read-out: hSSTR 3 Ki): 6200 nM
Ki (hSSTR4; TABLE 3, read-out: hSSTR 4 Ki): 3000 nM
Ki (hSSTR5): 4000 nM
hSSTR subtype affinity profile (five hSSTRs): atypically high affinity for hSSTR5

Compound: CC(=O)NCCCCCOC[C@H]1O[C@@H](OCCc2c[nH]c3ccccc23)[C@H](OCc2ccccc2)[C@@H](OCc2ccccc2)[C@@H]1O [IV-99, (-)-2-(1H-indol-3-yl)ethyl-6-O-(N-acetyl-5-aminopentyl)-2,3-di-O-benzyl-β-D-glucopyranoside]
IC50 (NK-1 receptor; read-out: affinity at the NK-1 receptor): 27 nM

Compound: CC(C)[C@@H]1NC(=O)[C@H](CCCCN)NC(=O)[C@@H](Cc2c[nH]c3ccccc23)NC(=O)[C@H](Cc2ccc(O)cc2)NC(=O)[C@H](C)N(C)C(=O)[C@H](Cc2ccccc2)NC1=O [MK 678, reference compound]
IC50 (SRIF receptor; read-out: IC50): 60 nM

More lines, main results first:

IC50 [2, 3]: 7000 nM
Compound: NCCCCCCOC[C@H]1O[C@@H](OCCc2c[nH]c3ccccc23)[C@H](OCc2ccccc2)C[C@@H]1OCc1ccccc1 [III-5b, 2-(1H-Indol-3-yl)ethyl 2,4-Di-O-benzyl-3-deoxy-6-O-(6-aminohexyl)-β-D-glucopyranoside]

IC50 [2, 3]: 5900 nM
IC50 [2, 4]: 5900 nM
IC50 [2, 5]: 5900 nM
Ki (hSSTR1; TABLE 3, read-out: hSSTR 1 Ki): 2400 nM
Ki (hSSTR2; TABLE 3, read-out: hSSTR 2 Ki): 4600 nM
Ki (hSSTR3; TABLE 3, read-out: hSSTR 3 Ki): 3000 nM
Ki (hSSTR4; TABLE 3, read-out: hSSTR 4 Ki): 2000 nM
Ki (hSSTR5): 3000 nM
hSSTR subtype affinity profile (five hSSTRs): highest affinity for hSSTR4
Compound: CO[C@@H]1O[C@H](COCCCCCN)[C@@H](OCc2ccccc2)[C@H](OCc2ccccc2)[C@H]1OCc1ccccc1 [III-8a, Methyl 2,3,4-Tri-O-benzyl-6-O-(5-aminopentyl)-β-D-glucopyranoside]

Ki (hSSTR3; TABLE 3, read-out: hSSTR 3 Ki): 6400 nM
Ki (hSSTR4; TABLE 3, read-out: hSSTR 4 Ki): 2000 nM
IC50 (NK-1 receptor; [6]): 150 nM
Compound: NCCCCCOC[C@@H]1O[C@H](OCCc2c[nH]c3ccccc23)[C@@H](OCc2ccccc2)[C@H](OCc2ccccc2)[C@H]1OCc1ccccc1 [IV-11, 2-(1H-Indol-3-yl)ethyl 2,3,4-tri-O-benzyl-6-O-(5'-aminopentyl)-β-L-glucopyranoside]
hSSTR subtype affinity profile (five hSSTRs): high affinities for hSSTR2 and hSSTR4 and a low affinity for SSTR1; also recorded: higher relative affinity for SSTR5 and a lesser relative affinity for SSTR3

Ki (hSSTR3; TABLE 3, read-out: hSSTR 3 Ki): 3300 nM
Ki (hSSTR4; TABLE 3, read-out: hSSTR 4 Ki): 1900 nM
Compound: NCCCCCOC[C@@H]1O[C@H](OCCc2c[nH]c3ccccc23)[C@H](OCc2ccccc2)[C@H](OCc2ccccc2)[C@H]1OCc1ccccc1 [IV-22, 2-(1H-Indol-3-yl)ethyl 2,3,4-tri-O-benzyl-6-O-(5'-aminopentyl)-β-L-mannopyranoside]
hSSTR subtype affinity profile (five hSSTRs): high affinities for hSSTR2 and hSSTR4 and a low affinity for SSTR1

AtT-20 cells IC50 ([2]; TABLE 2 (Example 106)): DNB
IC50 [2, 4]: 13000 nM
Ki (hSSTR1; TABLE 3, read-out: hSSTR 1 Ki): 2100 nM
affinity at SSTR 2 (hSSTR2): submicromolar affinities
Ki (hSSTR2; TABLE 3, read-out: hSSTR 2 Ki): 600 nM
affinity at SSTR 3 (hSSTR3): submicromolar affinities
Ki (hSSTR3; TABLE 3, read-out: hSSTR 3 Ki): 600 nM
affinity at SSTR 4 (hSSTR4): submicromolar affinities
Ki (hSSTR4; TABLE 3, read-out: hSSTR 4 Ki): 500 nM
Ki (hSSTR5): 1300 nM
Ki (five hSSTRs; average over hSSTRs): 1000 nM
Compound: NCCCCC(N)NC[C@H]1O[C@@H](OCCc2c[nH]c3ccccc23)[C@H](OCc2ccccc2)[C@@H](OCc2ccccc2)[C@@H]1OCc1ccccc1 (stereo partly drawn) [IV-42, 2-(1H-indol-3-yl)ethyl 2,3,4-tri-O-benzyl-6-N-(1',5'-diamino-pentyl)-β-D-glucopyranoside]
activity / affinity at SRIF receptors of AtT-20 cells [2]: did not result in an increase in affinity

Ki (hSSTR1; TABLE 3, read-out: hSSTR 1 Ki): 300 nM
Ki (hSSTR1; read-out: Ki at SSTR 1): 300 nM
Ki (hSSTR2; TABLE 3, read-out: hSSTR 2 Ki): 800 nM
Ki (hSSTR2; read-out: Ki at SSTR 2): 800 nM
Ki (hSSTR3; TABLE 3, read-out: hSSTR 3 Ki): 900 nM
Ki (hSSTR3; read-out: Ki at SSTR 3): 900 nM
Ki (hSSTR4; TABLE 3, read-out: hSSTR 4 Ki): 100 nM
Ki (hSSTR4; read-out: Ki at SSTR 4): 100 nM
binding of SSTR5 (hSSTR5): failed to bind SSTR5
Ki (hSSTR5): > 10000 nM
Compound: NCCCCCOC[C@@H]1O[C@H](OCCc2c[nH]c3ccccc23)[C@H](OCc2c[nH]cn2)[C@H](OCc2ccccc2)[C@H]1OCc1ccccc1 [IV-72, 2-(1H-indol-3-yl)ethyl 2-O-(4'-methylene-1H-imidazole)-3,4-di-O-benzyl-6-O-(5'-amino-pentyl)-β-L-mannopyranoside]

binding of the NK-1 receptor (NK-1 receptor): did not bind the NK-1 receptors
Compound: Fc1ccc(COC[C@H]2O[C@@H](OCCc3c[nH]c4ccccc34)[C@H](OCc3ccc4ccccc4c3)[C@@H](OCc3ccccc3)[C@@H]2OCc2ccccc2)cc1 [IV-79, (+)-2-(1H-indol-3-yl)ethyl-3,4-di-O-benzyl-6-O-(4-fluorobenzyl)-2-O-(2-naphthyl)methyl-β-D-glucopyranoside]

binding of the NK-1 receptor (NK-1 receptor): did not bind the NK-1 receptors
Compound: Fc1ccc(OC[C@H]2O[C@@H](OCCc3c[nH]c4ccccc34)[C@H](OCc3ccc4ccccc4c3)[C@@H](OCc3ccccc3)[C@@H]2OCc2ccccc2)cc1 [IV-81, (+)-2-(1H-indol-3-yl)ethyl-3,4-di-O-benzyl-6-O-(4-fluorophenyl)-2-O-(2-naphthyl)methyl-β-D-glucopyranoside]

binding of the NK-1 receptor (NK-1 receptor): did not bind the NK-1 receptors
Compound: Fc1ccc(CO[C@H]2[C@H](OCCc3c[nH]c4ccccc34)O[C@H](COCc3ccc4ccccc4c3)[C@@H](OCc3ccccc3)[C@@H]2OCc2ccccc2)cc1 [IV-84, (+)-2-(1H-inclol-3-yl) ethyl-3, li-di-O-Benzyl 2-O-(4-fluorobenzyl)-B-D-glucopyranoside]

binding of the NK-1 receptor (NK-1 receptor): did not bind the NK-1 receptors
IC50 (NK-1 receptor; [6]): 209 nM
Compound: CC(=O)NCCCCCOC[C@H]1O[C@@H](OCCc2c[nH]c3ccccc23)[C@H](OCc2ccc3ccccc3c2)[C@@H](OCc2ccccc2)[C@@H]1OCc1ccccc1 [IV-92, (+)-2-(1H-indol-3-yl)ethyl-6-O-(N-acetyl-5-aminopentyl)-3,4-di-O-benzyl-2-O-(2-naphthyl)methyl-β-D-glucopyranoside]
